Experimental data published in patent US20160009693A1, “HERBICIDAL COMPOUNDS” (SYNGENTA LIMITED, priority 2013, published 2016).

Test system: Setaria faberi (SETFA)
Experiment: Herbicidal glasshouse test, post-emergence, SETFA
Assay type: in vivo
Conditions: applied at 1000 g/h, evaluated after 13 days
Summary of the method: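 This post-emergence glasshouse herbicide test used potted Setaria faberi. Plants were cultivated for 8 days under controlled conditions (24/16° C. day/night, 14 hours light, 65% humidity) and then treated with an aqueous spray made from an acetone/water (50:50) solution containing 0.5% Tween 20. After 13 days of further growth with twice-daily watering, damage was rated on a five point scale (5=80-100%; 1=0-19%).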

Row | SMILES | POST Application SETFA, percentage damage (five point scale)
1 | COc1cc(-n2c(=O)c(C(=O)Nc3nnnn3C)nn(C)c2=O)ccc1F [Compound 1.048] | 5 (5=80-100%)
2 | CCCn1nnnc1NC(=O)c1nn(C)c(=O)n(-c2ccc(F)cc2)c1=O [Compound 1.049] | 5 (5=80-100%)
3 | Cn1nnnc1NC(=O)c1nn(C)c(=O)n(Cc2ccc(C#N)cc2)c1=O [Compound 1.050] | 1 (1=0-19%)
4 | Cc1ccc(Cn2c(=O)c(C(=O)Nc3nnnn3C)nn(C)c2=O)cc1 [Compound 1.051] | 2 (2=20-39%)
5 | Cc1cccc(Cn2c(=O)c(C(=O)Nc3nnnn3C)nn(C)c2=O)c1 [Compound 1.052] | 1 (1=0-19%)

Test system: Alopecurus myosuroides (ALOMY)
Experiment: Herbicidal glasshouse test, post-emergence, ALOMY
Assay type: in vivo
Conditions: applied at 1000 g/h, evaluated after 13 days

Row | SMILES | POST Application ALOMY, percentage damage (five point scale)
6 | COc1cc(-n2c(=O)c(C(=O)Nc3nnnn3C)nn(C)c2=O)ccc1F [Compound 1.048] | 5 (5=80-100%)
7 | CCCn1nnnc1NC(=O)c1nn(C)c(=O)n(-c2ccc(F)cc2)c1=O [Compound 1.049] | 5 (5=80-100%)
8 | Cn1nnnc1NC(=O)c1nn(C)c(=O)n(Cc2ccc(C#N)cc2)c1=O [Compound 1.050] | 5 (5=80-100%)
9 | Cc1ccc(Cn2c(=O)c(C(=O)Nc3nnnn3C)nn(C)c2=O)cc1 [Compound 1.051] | 5 (5=80-100%)
10 | Cc1cccc(Cn2c(=O)c(C(=O)Nc3nnnn3C)nn(C)c2=O)c1 [Compound 1.052] | 5 (5=80-100%)

Test system: Amaranthus retoflexus (AMARE)
Experiment: Herbicidal glasshouse test, post-emergence, AMARE
Assay type: in vivo
Conditions: applied at 1000 g/h, evaluated after 13 days
Summary of the method: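 This post-emergence glasshouse test used AMARE plants raised in standard soil for 8 days under controlled conditions (24/16° C. day/night, 14 hours light, 65% humidity). Foliage was sprayed with formulated compound in acetone/water (50:50) containing 0.5% Tween 20. Plants were then watered twice daily, and after 13 days percentage damage was rated on a five point scale.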

Row | SMILES | POST Application AMARE, percentage damage (five point scale)
11 | COc1cc(-n2c(=O)c(C(=O)Nc3nnnn3C)nn(C)c2=O)ccc1F [Compound 1.048] | 5 (5=80-100%)
12 | CCCn1nnnc1NC(=O)c1nn(C)c(=O)n(-c2ccc(F)cc2)c1=O [Compound 1.049] | 5 (5=80-100%)
13 | Cn1nnnc1NC(=O)c1nn(C)c(=O)n(Cc2ccc(C#N)cc2)c1=O [Compound 1.050] | 5 (5=80-100%)
14 | Cc1ccc(Cn2c(=O)c(C(=O)Nc3nnnn3C)nn(C)c2=O)cc1 [Compound 1.051] | 5 (5=80-100%)
15 | Cc1cccc(Cn2c(=O)c(C(=O)Nc3nnnn3C)nn(C)c2=O)c1 [Compound 1.052] | 5 (5=80-100%)

Test system: Echinochloa crus-galli (ECHCG)
Experiment: Herbicidal glasshouse test, pre-emergence, ECHCG
Assay type: in vivo
Conditions: applied at 1000 g/h, evaluated after 13 days
Summary of the method: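 In this pre-emergence glasshouse test, ECHCG seeds sown in pots of standard soil were sprayed one day after sowing with the test material in acetone/water (50:50) containing 0.5% Tween 20. Plants were kept at 24/16° C., 14 hours light, 65% humidity, and watered twice daily. Percentage damage was rated after 13 days on a 1–5 scale.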

Row | SMILES | PRE Application ECHCG, percentage damage (five point scale)
16 | COc1cc(-n2c(=O)c(C(=O)Nc3nnnn3C)nn(C)c2=O)ccc1F [Compound 1.048] | 5 (5=80-100%)
17 | CCCn1nnnc1NC(=O)c1nn(C)c(=O)n(-c2ccc(F)cc2)c1=O [Compound 1.049] | 5 (5=80-100%)
18 | Cn1nnnc1NC(=O)c1nn(C)c(=O)n(Cc2ccc(C#N)cc2)c1=O [Compound 1.050] | 5 (5=80-100%)
19 | Cc1ccc(Cn2c(=O)c(C(=O)Nc3nnnn3C)nn(C)c2=O)cc1 [Compound 1.051] | 5 (5=80-100%)
20 | Cc1cccc(Cn2c(=O)c(C(=O)Nc3nnnn3C)nn(C)c2=O)c1 [Compound 1.052] | 5 (5=80-100%)

Test system: Echinochloa crus-galli (ECHCG)
Experiment: Herbicidal glasshouse test, post-emergence, ECHCG
Assay type: in vivo
Conditions: applied at 1000 g/h, evaluated after 13 days
Summary of the method: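 In this post-emergence glasshouse test, barnyard grass (ECHCG) was cultivated for 8 days under controlled conditions (24/16° C. day/night, 14 hours light, 65% humidity). It was then sprayed with an aqueous solution of the technical compound in acetone / water (50:50) with 0.5% Tween 20. Plants were kept under the same conditions and watered twice daily. After 13 days, percentage damage was rated on a five point scale (5=80-100%; 1=0-19%).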

Row | SMILES | POST Application ECHCG, percentage damage (five point scale)
21 | COc1cc(-n2c(=O)c(C(=O)Nc3nnnn3C)nn(C)c2=O)ccc1F [Compound 1.048] | 5 (5=80-100%)
22 | CCCn1nnnc1NC(=O)c1nn(C)c(=O)n(-c2ccc(F)cc2)c1=O [Compound 1.049] | 5 (5=80-100%)
23 | Cn1nnnc1NC(=O)c1nn(C)c(=O)n(Cc2ccc(C#N)cc2)c1=O [Compound 1.050] | 5 (5=80-100%)
24 | Cc1ccc(Cn2c(=O)c(C(=O)Nc3nnnn3C)nn(C)c2=O)cc1 [Compound 1.051] | 5 (5=80-100%)
25 | Cc1cccc(Cn2c(=O)c(C(=O)Nc3nnnn3C)nn(C)c2=O)c1 [Compound 1.052] | 5 (5=80-100%)

Test system: Solanum nigrum (SOLNI)
Experiment: Herbicidal glasshouse test, pre-emergence, SOLNI
Assay type: in vivo
Conditions: applied at 1000 g/h, evaluated after 13 days
Summary of the method: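 This pre-emergence glasshouse herbicide test used Solanum nigrum sown in standard soil. One day after sowing, pots were sprayed with the compound in acetone/water (50:50) with 0.5% Tween 20. They were then grown at 24/16° C., with 14 hours light and 65% humidity, and watered twice daily. Percentage damage was scored after 13 days on a five point scale, where 5=80-100% and 1=0-19%.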

Row | SMILES | PRE Application SOLNI, percentage damage (five point scale)
26 | COc1cc(-n2c(=O)c(C(=O)Nc3nnnn3C)nn(C)c2=O)ccc1F [Compound 1.048] | 5 (5=80-100%)
27 | CCCn1nnnc1NC(=O)c1nn(C)c(=O)n(-c2ccc(F)cc2)c1=O [Compound 1.049] | 5 (5=80-100%)
28 | Cn1nnnc1NC(=O)c1nn(C)c(=O)n(Cc2ccc(C#N)cc2)c1=O [Compound 1.050] | 5 (5=80-100%)
29 | Cc1ccc(Cn2c(=O)c(C(=O)Nc3nnnn3C)nn(C)c2=O)cc1 [Compound 1.051] | 5 (5=80-100%)
30 | Cc1cccc(Cn2c(=O)c(C(=O)Nc3nnnn3C)nn(C)c2=O)c1 [Compound 1.052] | 5 (5=80-100%)

Test system: Ipomoea hederacea (IPOHE)
Experiment: Herbicidal glasshouse test, post-emergence, IPOHE
Assay type: in vivo
Conditions: applied at 1000 g/h, evaluated after 13 days

Row | SMILES | POST Application IPOHE, percentage damage (five point scale)
31 | COc1cc(-n2c(=O)c(C(=O)Nc3nnnn3C)nn(C)c2=O)ccc1F [Compound 1.048] | 5 (5=80-100%)
32 | CCCn1nnnc1NC(=O)c1nn(C)c(=O)n(-c2ccc(F)cc2)c1=O [Compound 1.049] | 5 (5=80-100%)
33 | Cn1nnnc1NC(=O)c1nn(C)c(=O)n(Cc2ccc(C#N)cc2)c1=O [Compound 1.050] | 5 (5=80-100%)
34 | Cc1ccc(Cn2c(=O)c(C(=O)Nc3nnnn3C)nn(C)c2=O)cc1 [Compound 1.051] | 5 (5=80-100%)
35 | Cc1cccc(Cn2c(=O)c(C(=O)Nc3nnnn3C)nn(C)c2=O)c1 [Compound 1.052] | 5 (5=80-100%)

Test system: Alopecurus myosuroides (ALOMY)
Experiment: Herbicidal glasshouse test, pre-emergence, ALOMY
Assay type: in vivo
Conditions: applied at 1000 g/h, evaluated after 13 days

Row | SMILES | PRE Application ALOMY, percentage damage (five point scale)
36 | COc1cc(-n2c(=O)c(C(=O)Nc3nnnn3C)nn(C)c2=O)ccc1F [Compound 1.048] | 5 (5=80-100%)
37 | CCCn1nnnc1NC(=O)c1nn(C)c(=O)n(-c2ccc(F)cc2)c1=O [Compound 1.049] | 5 (5=80-100%)
38 | Cn1nnnc1NC(=O)c1nn(C)c(=O)n(Cc2ccc(C#N)cc2)c1=O [Compound 1.050] | 5 (5=80-100%)
39 | Cc1ccc(Cn2c(=O)c(C(=O)Nc3nnnn3C)nn(C)c2=O)cc1 [Compound 1.051] | 5 (5=80-100%)
40 | Cc1cccc(Cn2c(=O)c(C(=O)Nc3nnnn3C)nn(C)c2=O)c1 [Compound 1.052] | 5 (5=80-100%)

Test system: Ipomoea hederacea (IPOHE)
Experiment: Herbicidal glasshouse test, pre-emergence, IPOHE
Assay type: in vivo
Conditions: applied at 1000 g/h, evaluated after 13 days

Row | SMILES | PRE Application IPOHE, percentage damage (five point scale)
41 | COc1cc(-n2c(=O)c(C(=O)Nc3nnnn3C)nn(C)c2=O)ccc1F [Compound 1.048] | 5 (5=80-100%)
42 | CCCn1nnnc1NC(=O)c1nn(C)c(=O)n(-c2ccc(F)cc2)c1=O [Compound 1.049] | 5 (5=80-100%)
43 | Cn1nnnc1NC(=O)c1nn(C)c(=O)n(Cc2ccc(C#N)cc2)c1=O [Compound 1.050] | 5 (5=80-100%)
44 | Cc1ccc(Cn2c(=O)c(C(=O)Nc3nnnn3C)nn(C)c2=O)cc1 [Compound 1.051] | 5 (5=80-100%)
45 | Cc1cccc(Cn2c(=O)c(C(=O)Nc3nnnn3C)nn(C)c2=O)c1 [Compound 1.052] | 2 (2=20-39%)

Test system: Amaranthus retoflexus (AMARE)
Experiment: Herbicidal glasshouse test, pre-emergence, AMARE
Assay type: in vivo
Conditions: applied at 1000 g/h, evaluated after 13 days
Summary of the method: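 This pre-emergence glasshouse herbicide test used Amaranthus retoflexus sown in standard soil. After one day of cultivation, an aqueous spray made from the technical ingredient in 50:50 acetone/water with 0.5% Tween 20 was applied. Pots stayed at 24/16° C., 14 hours light, 65% humidity, with twice-daily watering. Damage was rated on a five point scale (1=0-19% up to 5=80-100%).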

Row | SMILES | PRE Application AMARE, percentage damage (five point scale)
46 | COc1cc(-n2c(=O)c(C(=O)Nc3nnnn3C)nn(C)c2=O)ccc1F [Compound 1.048] | 5 (5=80-100%)
47 | CCCn1nnnc1NC(=O)c1nn(C)c(=O)n(-c2ccc(F)cc2)c1=O [Compound 1.049] | 5 (5=80-100%)
48 | Cn1nnnc1NC(=O)c1nn(C)c(=O)n(Cc2ccc(C#N)cc2)c1=O [Compound 1.050] | 5 (5=80-100%)
49 | Cc1ccc(Cn2c(=O)c(C(=O)Nc3nnnn3C)nn(C)c2=O)cc1 [Compound 1.051] | 5 (5=80-100%)
50 | Cc1cccc(Cn2c(=O)c(C(=O)Nc3nnnn3C)nn(C)c2=O)c1 [Compound 1.052] | 5 (5=80-100%)

Test system: Solanum nigrum (SOLNI)
Experiment: Herbicidal glasshouse test, post-emergence, SOLNI
Assay type: in vivo
Conditions: applied at 1000 g/h, evaluated after 13 days

Row | SMILES | POST Application SOLNI, percentage damage (five point scale)
51 | COc1cc(-n2c(=O)c(C(=O)Nc3nnnn3C)nn(C)c2=O)ccc1F [Compound 1.048] | 5 (5=80-100%)
52 | CCCn1nnnc1NC(=O)c1nn(C)c(=O)n(-c2ccc(F)cc2)c1=O [Compound 1.049] | 5 (5=80-100%)
53 | Cn1nnnc1NC(=O)c1nn(C)c(=O)n(Cc2ccc(C#N)cc2)c1=O [Compound 1.050] | 5 (5=80-100%)
54 | Cc1ccc(Cn2c(=O)c(C(=O)Nc3nnnn3C)nn(C)c2=O)cc1 [Compound 1.051] | 5 (5=80-100%)
55 | Cc1cccc(Cn2c(=O)c(C(=O)Nc3nnnn3C)nn(C)c2=O)c1 [Compound 1.052] | 5 (5=80-100%)

Test system: Setaria faberi (SETFA)
Experiment: Herbicidal glasshouse test, pre-emergence, SETFA
Assay type: in vivo
Conditions: applied at 1000 g/h, evaluated after 13 days

Row | SMILES | PRE Application SETFA, percentage damage (five point scale)
56 | COc1cc(-n2c(=O)c(C(=O)Nc3nnnn3C)nn(C)c2=O)ccc1F [Compound 1.048] | 5 (5=80-100%)
57 | CCCn1nnnc1NC(=O)c1nn(C)c(=O)n(-c2ccc(F)cc2)c1=O [Compound 1.049] | 5 (5=80-100%)
58 | Cn1nnnc1NC(=O)c1nn(C)c(=O)n(Cc2ccc(C#N)cc2)c1=O [Compound 1.050] | 2 (2=20-39%)
59 | Cc1ccc(Cn2c(=O)c(C(=O)Nc3nnnn3C)nn(C)c2=O)cc1 [Compound 1.051] | 1 (1=0-19%)
60 | Cc1cccc(Cn2c(=O)c(C(=O)Nc3nnnn3C)nn(C)c2=O)c1 [Compound 1.052] | 1 (1=0-19%)
